Assay results as given in BigSolDB 2.1.

CCCCCCCCCCCCCCCCOc1nc2ccc(C)cc2c(=O)o1
solubility (mole fraction)
Conditions | 278.15 K | 283.15 K | 288.15 K | 293.15 K | 298.15 K | 303.15 K | 308.15 K | 313.15 K | 318.15 K | 323.15 K
in acetone | 0.0814 | 0.0965 | 0.114 | 0.133 | 0.157 | 0.18 | 0.208 | 0.245 | 0.284 | 0.327
in acetonitrile | 0.0619 | 0.0759 | 0.089 | 0.106 | 0.123 | 0.144 | 0.167 | 0.191 | 0.222 | 0.259
in isopropanol | 0.0702 | 0.0829 | 0.0979 | 0.116 | 0.137 | 0.158 | 0.181 | 0.207 | 0.241 | 0.28
